According to patent US20100069450A1, “SALT OF 3-BENZYL-2-METHYL-2,3,3A,4,5,6,7, 7A- OCTAHYDROBENZO[D]ISOXAZOL-4-ONE” (ABIOGEN PHARMA S.P.A, priority 2006, published 2010):

Assays:
female CD-1 mice = assay: Acute oral toxicity; type: in vivo; conditions: female CD-1 mice, oral gavage 2000 mg/kg bw
Protocol: Acute oral toxicity of salts hydrochloride and fumarate of BTG-1640 was evaluated.
The two salts were dispersed in an aqueous suspension, thus obtaining two formulations, each one orally administered through oesophageous gavage at dose of 2000 mg/kg bw (expressed as free base of BTG 1640) to one of two groups comprising three female CD-1 mice per group.
The observation lasted 14 days.

[1] = Stability test of BTG 1640 salts: purity under preservation conditions; type: physicochemical
Protocol: Samples of 100 mg each of BTG 1640 hydrochloride were subjected to the following preservation conditions:
The purities were then analyzed periodically, initially every three months, in order to underline possible variations.
Samples of 100 mg each of BTG 1640 fumarate prepared according to example 1C were subjected to the following preservation conditions:
Quarterly and in an overall period of nine months its purity was then analyzed in order to underline possible variations. The results in the following Table 3 were obtained:
As comparison other salts of BTG 1640 were prepared, and exactly: • BTG 1640 methanesulphonate • BTG 1640 maleate • BTG 1640 succinate following the procedure indicated in example 1 and substituting methanesolphonic, maleic and succinic acids for fumaric acid.
The stabilities were then evaluated by subjecting samples of 100 mg of each salt to the following analogous preservation conditions:
Quarterly and in an overall period of nine months their purity was then analyzed in order to underline possible variations.
The obtained results, together with those obtained in Example 2 for hydrochloride, in Example 3 for fumarate in order to make easier the comparison, were in Table 5 and represented in FIGS. 5-8.

[2] = Stability test of BTG 1640 salts: evaluation of total impurities; type: physicochemical
Protocol: Contemporaneously, the impurity analysis in the conditions a)-d) of T/% RH were carried out.
As a confirmation of such evidence, a test for the evaluation of the impurity percentage of the sample subjected to the same conditions a)-d) of T/% RH was parallely carried out. The experimental values in Table 4 were obtained.

[3] = Absorption kinetic: plasma concentration of BTG 1640 after oral gavage; type: in vivo, rats Sprague Dawley; conditions: rats, oral gavage 10 mg/kg (as free base)
Protocol: Absorption extent and rate of molecule BTG 1640 in its forms of fumarate and hydrochloride salts were evaluated.
With this intent, the two salts were dispersed in an aqueous suspension of arabic gum at 5% thus obtaining two formulations, each one orally administered through oesophageous gavage at dose of 10 mg/kg (expressed as free base of BTG 1640) to five rats Sprague Dawley.
Plasma concentration of molecule BTG 1640 was determined at different time points.

[4] = T = 25° C., humidity 60% RH, time 0
[5] = T = 25° C., humidity 60% RH, time 3 (months)
[6] = T = 25° C., humidity 60% RH, time 6 (months)
[7] = T = 25° C., humidity 60% RH, time 9 (months)
[8] = T = 25° C., humidity 60% RH, time 12 (months)
[9] = T = 25° C., humidity 60% RH, time 18 (months)
[10] = T = 25° C., humidity 60% RH, time 24 (months)
[11] = T = 25° C., humidity 60% RH, time 36 (months)
[12] = T = 30° C., humidity 65% RH, time 0
[13] = T = 30° C., humidity 65% RH, time 3 (months)
[14] = T = 30° C., humidity 65% RH, time 6 (months)
[15] = T = 30° C., humidity 65% RH, time 9 (months)
[16] = T = 30° C., humidity 65% RH, time 12 (months)
[17] = T = 40° C., humidity 75% RH, time 0
[18] = T = 40° C., humidity 75% RH, time 3 (months)
[19] = T = 40° C., humidity 75% RH, time 6 (months)

SMILES: CN1OC2CCCC(=O)C2C1Cc1ccccc1.Cl (stereo not shown) [BTG 1640 hydrochloride]
- Clinical signs (female CD-1 mice): Lethargy, ataxia, aggressiveness and vocalization
- Histopathological examination of kidneys (female CD-1 mice): small foci of acute tubular necrosis in the cortex, balloon degeneration of the epithelium and dilatation of convoluted tubules
- Lethality (female CD-1 mice; 14 days observation): lethal in two animals out of three
- Purity % ([1]; T = 5° C., time 0): 99.3%
- Purity % ([1]; T = 5° C., time 3 (months)): 100.1%
- Purity % ([1]; T = 5° C., time 6 (months)): 100.3%
- Purity % ([1]; T = 5° C., time 9 (months)): 99.6%
- Purity % ([1]; T = 5° C., time 12 (months)): 99.6%
- Purity % ([1]; T = 5° C., time 18 (months)): 100.8%
- Purity % ([1]; T = 5° C., time 24 (months)): 98.8%
- Purity % ([1]; T = 5° C., time 36 (months)): 99.8%
- Purity % [1, 4]: 99.7%
- Purity % [1, 5]: 100.9%
- Purity % [1, 6]: 101.5%
- Purity % [1, 7]: 99.3%
- Purity % [1, 8]: 101.1%
- Purity % [1, 9]: 100.5%
- Purity % [1, 10]: 99.3%
- Purity % [1, 11]: 99.5%
- Purity % [1, 12]: 99.7%
- Purity % [1, 13]: 100.0%
- Purity % [1, 14]: 100.9%
- Purity % [1, 15]: 100.6%
- Purity % [1, 16]: 99.9%
- Purity % [1, 17]: 99.7%
- Purity % [1, 18]: 93.4%
- Purity % [1, 19]: 81.2%
- Stability (in words) ([1]; condition d): 40° C. and 75% RH): strong instability
- Stability (in words) ([1]; conditions a)-c): 5° C., 25° C./60% RH, 30° C./65% RH): good stability
- validity time period ([1]; on the basis of the stability results, preserved at 2-8° C.): 12 months
- Stability (in words) ([1]; temperatures higher than 30° C.): unstable
- % impurities ([2]; T = 5° C., time 0): 0.36%
- % impurities ([2]; T = 5° C., time 3 (months)): 0.58%
- % impurities ([2]; T = 5° C., time 6 (months)): 0.45%
- % impurities ([2]; T = 5° C., time 9 (months)): 0.31%
- % impurities ([2]; T = 5° C., time 12 (months)): 0.31%
- % impurities ([2]; T = 5° C., time 18 (months)): 0.1%
- % impurities ([2]; T = 5° C., time 24 (months)): 0.21%
- % impurities ([2]; T = 5° C., time 36 (months)): 0.18%
- % impurities [2, 4]: 0.36%
- % impurities [2, 5]: 0.43%
- % impurities [2, 6]: 0.87%
- % impurities [2, 7]: 0.24%
- % impurities [2, 8]: 0.34%
- % impurities [2, 9]: 0.13%
- % impurities [2, 10]: 0.28%
- % impurities [2, 11]: 0.30%
- % impurities [2, 12]: 0.36%
- % impurities [2, 13]: 0.44%
- % impurities [2, 14]: 0.52%
- % impurities [2, 15]: 0.12%
- % impurities [2, 16]: 0.76%
- % impurities [2, 17]: 0.36%
- % impurities [2, 18]: 6.99%
- % impurities [2, 19]: 17.31%
- Impurities (in words) ([2]; condition d): 40° C./75% RH): unacceptable percentage of impurities
- BTG 1640 free base concentration in plasma ([3]; 2 minutes): 0.7402 µg/mL
- BTG 1640 free base concentration in plasma ([3]; 5 minutes): 1.4242 µg/mL
- BTG 1640 free base concentration in plasma ([3]; 30 minutes): 0.2354 µg/mL
- BTG 1640 free base concentration in plasma ([3]; 90 minutes): 0.1184 µg/mL
- BTG 1640 free base concentration in plasma ([3]; 300 minutes): 0 µg/mL
